{"source": "paper PMC3063489", "about": "(Molecular and biochemical parasitology, 2011)", "key": {"[1]": {"molecular_target": "GFP-SmDAT (Schistosoma mansoni, UniProt E9LD23)", "type": "cell-based", "conditions": "COS-7 cells; for uptake of tritiated substrate by SmDAT: 100 nM of each substrate, normalized to dopamine uptake (Fig. 2A)"}, "[2]": {"molecular_target": "hDAT (Homo sapiens, UniProt Q01959)", "sequence (Q01959 whole entry)": "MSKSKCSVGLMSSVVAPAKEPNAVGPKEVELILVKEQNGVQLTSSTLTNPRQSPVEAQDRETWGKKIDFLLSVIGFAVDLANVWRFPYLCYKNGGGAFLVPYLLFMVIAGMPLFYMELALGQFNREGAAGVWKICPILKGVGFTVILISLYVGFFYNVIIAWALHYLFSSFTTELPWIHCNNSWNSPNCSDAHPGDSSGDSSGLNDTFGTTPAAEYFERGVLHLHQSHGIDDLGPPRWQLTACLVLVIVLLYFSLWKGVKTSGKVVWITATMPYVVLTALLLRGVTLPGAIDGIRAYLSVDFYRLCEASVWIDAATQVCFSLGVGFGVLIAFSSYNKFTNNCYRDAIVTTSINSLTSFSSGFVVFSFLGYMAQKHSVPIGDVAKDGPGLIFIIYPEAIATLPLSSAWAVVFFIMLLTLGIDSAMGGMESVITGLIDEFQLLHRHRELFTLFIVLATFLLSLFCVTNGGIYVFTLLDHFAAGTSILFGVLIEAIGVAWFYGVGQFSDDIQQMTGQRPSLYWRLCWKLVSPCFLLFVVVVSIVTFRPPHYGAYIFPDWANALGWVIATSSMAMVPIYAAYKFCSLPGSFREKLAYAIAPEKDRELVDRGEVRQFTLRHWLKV", "conditions": "COS-7 cells"}, "[3]": {"system": "Schistosoma mansoni adult worms", "conditions": "adult worms treated with dopamine; cited from earlier work"}, "[4]": {"system": "Schistosoma", "conditions": "cited from earlier work"}}, "note": "Read-outs that look alike come from different tables or passages of the source.", "data": [{"smiles": "NC[C@H](O)c1ccc(O)c(O)c1", "note": "[Norepinephrine]", "values": [{"measurement": "uptake of tritiated substrate by SmDAT", "setting": "[1]", "value": "low but significant levels"}]}, {"smiles": "NCCc1ccc(O)c(O)c1", "note": "[dopamine]", "values": [{"measurement": "Vmax of dopamine uptake, GFP-SmDAT", "setting": "[1]", "value": "0.16 ± 0.04", "unit": "pmol/well/min"}, {"measurement": "Vmax of dopamine uptake, GFP-SmDAT", "setting": "[1]; unit as printed in legend of Fig. 2", "value": "0.16 ± 0.04", "unit": "pmol/min"}, {"measurement": "Vmax of dopamine uptake, hDAT", "setting": "[2]", "value": "0.9 ± 0.2", "unit": "pmol/well/min"}, {"measurement": "effect on adult worms", "setting": "[3]", "value": "relaxation of muscles and a lengthening of the worms"}]}, {"smiles": "O=C(C1CCCCC1)N1CC(=O)N2CCc3ccccc3C2C1", "note": "(stereo not shown) [praziquantel]", "values": [{"measurement": "activity on immature worms and eggs", "setting": "[4]", "value": "not active"}]}, {"smiles": "NCCc1c[nH]c2ccc(O)cc12", "note": "[serotonin]", "values": [{"measurement": "uptake of tritiated substrate by SmDAT", "setting": "[1]", "value": "could not detect any detectable levels"}]}]}
